In brackets after ≈: the same amount, converted by molar mass.
What was measured:
[1] = target: Rho-associated protein kinase 2 (Homo sapiens) (UniProt O75116); experiment: Inhibition of human ROCK2 at 100 nM
[2] = Kinetic solubility of the compound
[3] = target: Vascular endothelial growth factor receptor 2 (Homo sapiens) (UniProt P35968); experiment: Inhibition of human VEGFR at 100 nM
[4] = target: Serine/threonine-protein kinase PLK1 (Homo sapiens) (UniProt P53350); experiment: Inhibition of human PLK1 at 100 nM
Chain of Serine/threonine-protein kinase PLK1 (Homo sapiens) (P53350 whole entry): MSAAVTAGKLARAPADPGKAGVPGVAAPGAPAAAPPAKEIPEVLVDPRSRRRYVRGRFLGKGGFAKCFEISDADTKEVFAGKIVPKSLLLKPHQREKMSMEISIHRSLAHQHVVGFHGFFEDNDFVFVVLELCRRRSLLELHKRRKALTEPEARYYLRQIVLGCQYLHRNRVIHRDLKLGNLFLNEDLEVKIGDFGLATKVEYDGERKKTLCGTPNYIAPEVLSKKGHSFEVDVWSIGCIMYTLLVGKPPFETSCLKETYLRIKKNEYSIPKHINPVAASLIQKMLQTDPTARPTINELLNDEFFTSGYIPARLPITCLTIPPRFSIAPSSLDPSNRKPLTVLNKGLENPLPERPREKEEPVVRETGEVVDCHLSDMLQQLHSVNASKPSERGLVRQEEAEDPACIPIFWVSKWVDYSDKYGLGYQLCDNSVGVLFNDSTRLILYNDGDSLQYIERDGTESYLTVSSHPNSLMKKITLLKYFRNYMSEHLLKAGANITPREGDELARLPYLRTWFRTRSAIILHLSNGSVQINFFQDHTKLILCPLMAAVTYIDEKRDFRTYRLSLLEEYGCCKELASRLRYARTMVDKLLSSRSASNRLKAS

[5] = target: Dual specificity protein kinase TTK (Homo sapiens) (UniProt P33981); experiment: Inhibition of human TTK at 100 nM
[6] = target: Serine/threonine-protein kinase Chk2 (Homo sapiens) (UniProt O96017); experiment: Inhibition of human CHK2 at 100 nM
[7] = Metabolic stability in mouse liver microsomes assessed as compound remaining after 40 mins; format: ADME, microsome; conditions: read-out: Stability
[8] = target: Protein kinase C alpha type (Homo sapiens) (UniProt P17252); experiment: Inhibition of human PKCalpha at 100 nM
[9] = target: Eukaryotic elongation factor 2 kinase (Homo sapiens) (UniProt O00418); experiment: Inhibition of human EF2K at 100 nM
[10] = target: Tyrosine-protein kinase Lck (Homo sapiens) (UniProt P06239); experiment: Inhibition of human LCK at 100 nM
[11] = target: Mitogen-activated protein kinase 8 (Homo sapiens) (UniProt P45983); experiment: Inhibition of human JNK1 at 100 nM
[12] = target: Ribosomal protein S6 kinase beta-1 (Homo sapiens) (UniProt P23443); experiment: Inhibition of human S6K1 at 100 nM
Chain of Ribosomal protein S6 kinase beta-1 (Homo sapiens) (P23443 whole entry, looked up): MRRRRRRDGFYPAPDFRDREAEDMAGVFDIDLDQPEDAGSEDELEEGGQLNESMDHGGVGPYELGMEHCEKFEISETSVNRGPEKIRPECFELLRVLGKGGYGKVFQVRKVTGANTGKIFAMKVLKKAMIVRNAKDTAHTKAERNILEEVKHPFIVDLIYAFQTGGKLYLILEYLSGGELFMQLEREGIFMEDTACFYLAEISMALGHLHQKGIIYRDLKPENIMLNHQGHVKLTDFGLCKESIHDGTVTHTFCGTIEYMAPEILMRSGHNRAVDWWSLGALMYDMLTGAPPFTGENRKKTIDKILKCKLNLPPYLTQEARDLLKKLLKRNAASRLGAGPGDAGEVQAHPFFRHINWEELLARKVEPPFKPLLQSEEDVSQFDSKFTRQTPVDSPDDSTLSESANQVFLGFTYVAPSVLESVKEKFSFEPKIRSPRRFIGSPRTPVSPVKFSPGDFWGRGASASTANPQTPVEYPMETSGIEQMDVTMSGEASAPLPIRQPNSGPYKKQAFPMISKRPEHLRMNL

[13] = target: Calcium/calmodulin-dependent protein kinase type 1 (Homo sapiens) (UniProt Q14012); experiment: Inhibition of human CAMK1 at 100 nM
[14] = target: Insulin receptor (Homo sapiens) (UniProt P06213); experiment: Inhibition of human IR at 100 nM
[15] = target: High affinity nerve growth factor receptor (Homo sapiens) (UniProt P04629); experiment: Inhibition of human TrkA at 100 nM
[16] = target: Casein kinase 2 (Homo sapiens) (UniProt P67870+P68400+P19784+Q8NEV1); experiment: Inhibition of human CK2 at 100 nM; format: protein assay
[17] = target: Serine/threonine-protein kinase 26 (Homo sapiens) (UniProt Q9P289); experiment: Inhibition of human MST4 at 100 nM
Chain of Serine/threonine-protein kinase 26 (Homo sapiens) (Q9P289 2-416 limits assumed): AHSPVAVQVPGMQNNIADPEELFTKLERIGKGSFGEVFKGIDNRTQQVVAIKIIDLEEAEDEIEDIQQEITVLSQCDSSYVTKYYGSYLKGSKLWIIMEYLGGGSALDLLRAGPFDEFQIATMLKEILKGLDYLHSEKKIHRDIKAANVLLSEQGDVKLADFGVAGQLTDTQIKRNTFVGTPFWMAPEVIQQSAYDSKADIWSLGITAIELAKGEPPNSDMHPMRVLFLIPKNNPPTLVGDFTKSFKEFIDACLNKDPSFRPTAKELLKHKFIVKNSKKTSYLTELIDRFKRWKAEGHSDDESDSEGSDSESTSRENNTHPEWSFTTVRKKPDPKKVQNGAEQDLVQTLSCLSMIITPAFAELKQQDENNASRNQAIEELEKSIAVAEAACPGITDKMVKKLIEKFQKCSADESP

[18] = target: Ribosomal protein S6 kinase alpha-3 (Homo sapiens) (UniProt P51812); experiment: Inhibition of human RSK2 at 100 nM
[19] = target: Mitogen-activated protein kinase kinase kinase 7 (Homo sapiens) (UniProt O43318); experiment: Inhibition of human TAK1 at 100 nM
[20] = target: MAP kinase-interacting serine/threonine-protein kinase 1 (Homo sapiens) (UniProt Q9BUB5); experiment: Inhibition of human MNK1 at 100 nM
Chain of MAP kinase-interacting serine/threonine-protein kinase 1 (Homo sapiens) (Q9BUB5 whole entry, looked up): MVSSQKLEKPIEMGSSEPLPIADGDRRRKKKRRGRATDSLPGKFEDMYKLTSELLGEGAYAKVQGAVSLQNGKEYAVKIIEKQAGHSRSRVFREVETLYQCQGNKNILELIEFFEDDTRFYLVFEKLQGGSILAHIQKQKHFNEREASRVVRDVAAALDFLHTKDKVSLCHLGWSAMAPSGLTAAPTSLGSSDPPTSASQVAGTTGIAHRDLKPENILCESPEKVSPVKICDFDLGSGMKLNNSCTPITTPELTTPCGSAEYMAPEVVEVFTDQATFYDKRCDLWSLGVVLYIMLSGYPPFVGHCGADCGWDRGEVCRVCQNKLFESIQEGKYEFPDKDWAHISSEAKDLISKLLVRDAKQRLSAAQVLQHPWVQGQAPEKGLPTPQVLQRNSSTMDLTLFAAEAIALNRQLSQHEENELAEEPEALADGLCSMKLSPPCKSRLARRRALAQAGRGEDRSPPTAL

[21] = target: Tyrosine-protein kinase BTK (Homo sapiens) (UniProt Q06187); experiment: Inhibition of human BTK at 100 nM
Chain of Tyrosine-protein kinase BTK (Homo sapiens) (Q06187 whole entry): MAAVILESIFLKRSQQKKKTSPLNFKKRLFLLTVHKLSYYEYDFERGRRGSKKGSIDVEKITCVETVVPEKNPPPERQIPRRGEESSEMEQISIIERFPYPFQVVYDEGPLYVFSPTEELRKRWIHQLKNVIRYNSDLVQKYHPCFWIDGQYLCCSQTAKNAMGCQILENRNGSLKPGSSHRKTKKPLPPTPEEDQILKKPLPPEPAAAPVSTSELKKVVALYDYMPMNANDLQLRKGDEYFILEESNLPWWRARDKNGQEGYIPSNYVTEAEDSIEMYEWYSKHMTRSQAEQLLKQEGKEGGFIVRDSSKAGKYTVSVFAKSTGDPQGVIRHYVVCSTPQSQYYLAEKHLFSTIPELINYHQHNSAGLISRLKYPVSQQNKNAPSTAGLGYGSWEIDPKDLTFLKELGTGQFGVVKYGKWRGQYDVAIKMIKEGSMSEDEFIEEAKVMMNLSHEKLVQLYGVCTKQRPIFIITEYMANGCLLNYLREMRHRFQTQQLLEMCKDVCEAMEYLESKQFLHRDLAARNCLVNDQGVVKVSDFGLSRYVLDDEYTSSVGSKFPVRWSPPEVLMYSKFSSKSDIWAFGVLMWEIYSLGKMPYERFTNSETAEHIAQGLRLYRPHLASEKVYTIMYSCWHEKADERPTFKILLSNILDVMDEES

[22] = target: Protein kinase C zeta type (Homo sapiens) (UniProt Q05513); experiment: Inhibition of human PKCzeta at 100 nM
Chain of Protein kinase C zeta type (Homo sapiens) (Q05513 whole entry): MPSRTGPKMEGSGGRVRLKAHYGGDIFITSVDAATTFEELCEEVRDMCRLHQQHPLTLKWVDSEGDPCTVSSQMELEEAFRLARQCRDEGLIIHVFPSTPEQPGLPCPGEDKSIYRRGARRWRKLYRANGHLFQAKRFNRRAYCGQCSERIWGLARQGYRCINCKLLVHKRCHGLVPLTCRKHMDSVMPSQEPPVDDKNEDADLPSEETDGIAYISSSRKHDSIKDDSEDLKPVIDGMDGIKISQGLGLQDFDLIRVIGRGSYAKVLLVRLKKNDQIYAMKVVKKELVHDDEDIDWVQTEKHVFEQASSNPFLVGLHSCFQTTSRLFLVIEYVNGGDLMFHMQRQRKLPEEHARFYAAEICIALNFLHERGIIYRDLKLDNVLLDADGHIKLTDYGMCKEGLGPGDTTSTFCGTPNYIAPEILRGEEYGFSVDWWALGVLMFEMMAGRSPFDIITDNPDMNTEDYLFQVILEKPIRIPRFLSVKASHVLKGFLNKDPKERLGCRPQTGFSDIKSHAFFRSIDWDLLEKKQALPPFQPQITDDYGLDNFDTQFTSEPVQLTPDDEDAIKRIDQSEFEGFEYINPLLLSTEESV

[23] = target: RAC-alpha serine/threonine-protein kinase (Homo sapiens) (UniProt P31749); experiment: Inhibition of human PKBalpha at 100 nM
[24] = target: Tyrosine-protein kinase JAK2 (Homo sapiens) (UniProt O60674); experiment: Inhibition of human JAK2 at 100 nM
[25] = target: Phosphorylase kinase (Homo sapiens) (UniProt P15735+P46020+P46019+Q93100+Q16816); experiment: Inhibition of human PHK at 100 nM; format: protein-complex assay
[26] = target: Serine/threonine-protein kinase STK11 (Homo sapiens) (UniProt Q15831); experiment: Inhibition of human LKB1 at 100 nM
Chain of Serine/threonine-protein kinase STK11 (Homo sapiens) (Q15831 whole entry): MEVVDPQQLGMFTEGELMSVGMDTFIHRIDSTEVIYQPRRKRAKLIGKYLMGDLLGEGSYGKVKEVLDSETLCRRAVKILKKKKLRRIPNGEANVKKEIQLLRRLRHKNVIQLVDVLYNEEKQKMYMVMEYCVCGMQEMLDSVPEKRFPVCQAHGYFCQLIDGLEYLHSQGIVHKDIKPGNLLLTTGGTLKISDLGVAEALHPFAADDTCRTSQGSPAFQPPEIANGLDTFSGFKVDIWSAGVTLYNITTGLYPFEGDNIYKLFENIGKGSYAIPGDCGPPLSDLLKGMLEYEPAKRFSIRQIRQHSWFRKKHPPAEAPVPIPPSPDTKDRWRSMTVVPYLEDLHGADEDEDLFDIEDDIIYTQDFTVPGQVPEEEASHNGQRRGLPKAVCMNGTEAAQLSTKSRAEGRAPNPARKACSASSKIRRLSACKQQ

[27] = target: Serine/threonine-protein kinase Nek2 (Homo sapiens) (UniProt P51955); experiment: Inhibition of human NEK2a at 100 nM
[28] = target: Aurora kinase B (Homo sapiens) (UniProt Q96GD4); experiment: Inhibition of human Aurora B at 100 nM
Chain of Aurora kinase B (Homo sapiens) (Q96GD4 whole entry): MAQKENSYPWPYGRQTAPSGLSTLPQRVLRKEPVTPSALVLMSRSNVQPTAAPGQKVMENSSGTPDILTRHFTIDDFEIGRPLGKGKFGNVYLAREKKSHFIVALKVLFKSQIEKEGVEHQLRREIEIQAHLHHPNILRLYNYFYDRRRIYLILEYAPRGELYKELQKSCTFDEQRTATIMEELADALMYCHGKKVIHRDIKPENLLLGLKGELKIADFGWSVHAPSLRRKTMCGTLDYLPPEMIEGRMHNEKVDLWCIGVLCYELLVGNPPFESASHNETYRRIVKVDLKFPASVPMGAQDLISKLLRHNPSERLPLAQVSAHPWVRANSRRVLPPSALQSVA

[29] = target: Dual specificity tyrosine-phosphorylation-regulated kinase 1A (Homo sapiens) (UniProt Q13627); experiment: Inhibition of human DYRK1A at 100 nM
[30] = target: Tyrosine-protein kinase SYK (Homo sapiens) (UniProt P43405); experiment: Inhibition of human SYK at 100 nM
[31] = target: Serine/threonine-protein kinase Chk1 (Homo sapiens) (UniProt O14757); experiment: Inhibition of human CHK1 at 100 nM
[32] = target: Fibroblast growth factor receptor 1 (Homo sapiens) (UniProt P11362); experiment: Inhibition of human FGFR1 at 100 nM
Chain of Fibroblast growth factor receptor 1 (Homo sapiens) (P11362 22-822 limits assumed): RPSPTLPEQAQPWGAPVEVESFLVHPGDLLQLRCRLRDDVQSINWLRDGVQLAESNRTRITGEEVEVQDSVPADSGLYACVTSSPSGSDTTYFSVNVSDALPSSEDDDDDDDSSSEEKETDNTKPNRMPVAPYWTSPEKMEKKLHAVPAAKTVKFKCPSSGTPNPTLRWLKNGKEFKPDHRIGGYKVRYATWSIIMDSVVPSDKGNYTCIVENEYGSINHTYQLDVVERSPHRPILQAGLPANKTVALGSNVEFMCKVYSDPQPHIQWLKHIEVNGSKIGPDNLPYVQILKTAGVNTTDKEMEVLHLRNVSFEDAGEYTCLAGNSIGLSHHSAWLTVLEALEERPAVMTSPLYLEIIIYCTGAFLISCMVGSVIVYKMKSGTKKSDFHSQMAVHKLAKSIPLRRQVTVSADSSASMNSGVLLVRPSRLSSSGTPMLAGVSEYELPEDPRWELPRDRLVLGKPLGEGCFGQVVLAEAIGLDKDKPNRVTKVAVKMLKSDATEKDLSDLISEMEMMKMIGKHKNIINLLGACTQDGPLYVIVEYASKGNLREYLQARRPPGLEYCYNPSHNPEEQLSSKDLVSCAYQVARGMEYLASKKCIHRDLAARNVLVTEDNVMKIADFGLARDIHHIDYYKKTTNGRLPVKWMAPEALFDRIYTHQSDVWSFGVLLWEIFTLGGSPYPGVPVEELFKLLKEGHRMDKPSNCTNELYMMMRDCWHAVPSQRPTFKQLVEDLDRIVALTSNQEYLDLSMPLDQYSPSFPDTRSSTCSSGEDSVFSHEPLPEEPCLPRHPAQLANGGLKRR

[33] = target: CDK2/Cyclin A2 (Homo sapiens) (UniProt P24941+P20248); experiment: Inhibition of human CDK2/Cyclin A at 100 nM; format: protein-complex assay
[34] = target: T1, Serine/threonine-protein kinase D1 (Homo sapiens) (UniProt Q15139); experiment: Inhibition of human PKD1 at 100 nM
T1 sequence (whole entry): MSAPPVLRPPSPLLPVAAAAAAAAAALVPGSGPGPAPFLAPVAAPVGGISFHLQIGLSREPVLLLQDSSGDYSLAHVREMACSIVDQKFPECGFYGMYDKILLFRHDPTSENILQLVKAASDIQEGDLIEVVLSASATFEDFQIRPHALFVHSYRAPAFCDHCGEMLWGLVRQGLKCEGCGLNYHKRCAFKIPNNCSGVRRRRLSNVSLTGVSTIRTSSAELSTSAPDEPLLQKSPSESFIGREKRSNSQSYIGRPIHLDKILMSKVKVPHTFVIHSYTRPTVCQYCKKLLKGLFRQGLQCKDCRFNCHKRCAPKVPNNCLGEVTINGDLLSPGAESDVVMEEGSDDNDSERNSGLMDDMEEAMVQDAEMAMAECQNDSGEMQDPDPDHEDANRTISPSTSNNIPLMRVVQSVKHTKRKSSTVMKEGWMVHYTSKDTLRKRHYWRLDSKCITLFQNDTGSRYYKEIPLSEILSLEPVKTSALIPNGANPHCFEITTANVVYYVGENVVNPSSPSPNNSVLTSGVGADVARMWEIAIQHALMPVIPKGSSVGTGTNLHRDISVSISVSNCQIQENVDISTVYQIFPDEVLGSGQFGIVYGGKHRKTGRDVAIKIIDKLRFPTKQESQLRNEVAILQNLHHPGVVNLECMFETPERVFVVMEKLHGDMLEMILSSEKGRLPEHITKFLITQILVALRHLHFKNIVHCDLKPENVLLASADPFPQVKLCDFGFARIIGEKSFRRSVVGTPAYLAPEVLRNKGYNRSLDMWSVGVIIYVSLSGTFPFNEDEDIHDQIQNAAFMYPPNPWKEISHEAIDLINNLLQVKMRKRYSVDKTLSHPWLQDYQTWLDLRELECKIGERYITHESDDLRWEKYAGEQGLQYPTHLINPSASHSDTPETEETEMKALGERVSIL

Structure (SMILES)	inhibition [1]	solubility kinetic [2]	inhibition [3]	inhibition [4]	inhibition [5]	inhibition [6]	remaining at 40 min [7]	inhibition [8]	inhibition [9]	inhibition [10]	inhibition [11]	inhibition [12]	inhibition [13]	inhibition [14]	inhibition [15]	inhibition [16]	inhibition [17]	inhibition [18]	inhibition [19]	inhibition [20]	also measured
CN1CCC(c2nc(-c3ccc(F)c(NS(C)(=O)=O)c3)c(-c3ccnc(NCC4CC4)n3)s2)CC1	< 70%	190 µM (≈ 98.2 µg/mL)	< 70%	< 70%	< 70%	< 70%	89%	< 70%	< 70%	< 70%	< 70%	< 70%	< 70%	< 70%	< 70%	< 70%	< 70%	< 70%	< 70%	< 70%	inhibition [21]: < 70%; inhibition [22]: < 70%; inhibition [23]: < 70%; inhibition [24]: < 70%; inhibition [25]: < 70%; inhibition [26]: < 70%; inhibition [27]: < 70%; inhibition [28]: < 70%; inhibition [29]: < 70%; inhibition [30]: < 70%; inhibition [31]: < 70%; inhibition [32]: < 70%; inhibition [33]: < 70%; inhibition [34]: < 70%
CN1CCC(c2nc(-c3cccc(S(C)(=O)=O)c3)c(-c3ccnc(Nc4ccc(N5CCNCC5)cc4)n3)s2)CC1	< 70%	208 µM (≈ 123 µg/mL)	< 70%	< 70%	< 70%	< 70%	89%	< 70%	< 70%	< 70%	< 70%	< 70%	< 70%	< 70%	< 70%	< 70%	< 70%	< 70%	< 70%	< 70%	inhibition [21]: < 70%; inhibition [22]: < 70%; inhibition [23]: < 70%; inhibition [24]: < 70%; inhibition [25]: < 70%; inhibition [26]: < 70%; inhibition [27]: < 70%; inhibition [28]: < 70%; inhibition [29]: < 70%; inhibition [30]: < 70%; inhibition [31]: < 70%; inhibition [32]: < 70%; inhibition [33]: < 70%; inhibition [34]: < 70%
